The values below come from PMC2248166, “Quantitative peptide binding motifs for 19 human and mouse MHC class I molecules derived using positional scanning combinatorial peptide libraries” (Immunome Research, 2008).

Assay type in all cases: binding
Experiment [1] has as its target HLA A*3001 (Homo sapiens, UniProt P04439, D140H/D185E/E176W/F33S/G80R/H175R/K168Q/R138E/R41S). Nature of the experiment: biochemical.
Experiment [2] deals with HLA A*3201 (Homo sapiens, UniProt P04439, A270S/D101S/D185E/E176V/E277Q/F133L/G103R/G107R/G231S/H175R/I121M/I218V/I322F/K168Q/L105A/L300P/L318F/M331R/P208A/P217A/Q94H/R106L/R138Q/S129P/T104I/T323A/T345S/V100E/V321M/V358M). The experiment is described as follows: biochemical.
For experiment [3], the target named is HLA A*6802 (Homo sapiens, UniProt P04439, A269V/D140Y/D185E/E176V/E277Q/E87N/F33Y/G231S/I121R/I166T/I218V/L180W/L300P/L318F/N151K/P208A/P217A/Q86R/R138H/R169H/S129P/T345S/V36M).
Experiment [4] addresses HLA B*0801 (Homo sapiens, UniProt P01889, A93T/A95T/D138N/E176V/E187T/K202T/Q94N/R180D/S35A/V36M/Y33D/Y91F). The experiment is described as follows: biochemical.
Experiment [5] has as its target HLA B*1501 (Homo sapiens, UniProt P01889, A329T/A93T/A95T/C349S/D201E/D98Y/E187L/E204Q/E69M/E70A/K202T/N87E/Q94N/R155S/R180W/S121R/S35A/S48A/V306I/V36M/Y140S/Y91S). The experiment is described as follows: biochemical.
Experiment [6] has as its target HLA B*1503 (Homo sapiens, UniProt P01889, A329T/A93T/A95T/C349S/D201E/D98Y/E187L/E204Q/K202T/N87E/Q94N/R155S/R180L/S121R/S35A/V306I/V36M/Y140S/Y91S). The experiment is described as follows: biochemical.
Experiment [7] has as its target HLA B*3501 (Homo sapiens, UniProt P01889, A329T/A93T/A95T/C349S/D201E/D98Y/E176V/E187L/E204Q/E69T/I218V/K202T/L119I/Q94N/R155S/R180L/S121R/S35A/S48A/T118I/V127L/V306I/V36M/Y140S/Y91F).
In experiment [8] the target is HLA B*5101 (Homo sapiens, UniProt P01889, A329T/A93T/A95T/C349S/D138N/D201E/D98Y/E187L/E204Q/E69T/G107R/I218V/K202T/L105A/L119W/N104I/Q94N/R106L/R155S/R180L/S101N/S121T/S35A/S48A/V306I/V36M/Y195H/Y91F).
In experiment [9] the target is HLA B*5301 (Homo sapiens, UniProt P01889, A329T/A93T/A95T/C349S/D201E/D98Y/E176V/E187L/E204Q/E69T/G107R/I218V/K202T/L105A/L119I/N104I/Q94N/R106L/R155S/R180L/S101N/S121R/S35A/S48A/T118I/V127L/V306I/V36M/Y140S/Y91F).
Experiment [10] addresses HLA B*5401 (Homo sapiens, UniProt P01889, A329T/C349S/D138N/D201E/E176V/E187T/E204Q/E69G/I76V/K202T/L119W/R155S/R180L/S121T/S35A/S48A/V127L/V306I/V36M/Y140L).
Experiment [11] concerns the target HLA B*5801 (Homo sapiens, UniProt P01889, A329T/C349S/D201E/D98Y/E176V/E187L/E204Q/E69T/G107R/I218V/I90N/K202T/L105A/L119I/N104I/N87E/Q89R/Q94S/R106L/R155S/R180L/R86G/S101N/S121R/S35A/S48A/T118I/V127L/V306I/V36M/Y140S/Y91M).
The target in experiment [12] is HLA B*5802 (Homo sapiens, UniProt P01889, A329T/C349S/D201E/D98Y/E176V/E187L/E204Q/E69T/G107R/I218V/I90N/K202T/L105A/N104I/N87E/Q89R/Q94S/R106L/R155S/R180L/R86G/S101N/S121W/S35A/S48A/V127L/V306I/V36M/Y140S/Y91M).
For experiment [13], the target named is H-2 D^b (Mus musculus, UniProt P01899).
Sequence of H-2 D^b (P01887 21-119): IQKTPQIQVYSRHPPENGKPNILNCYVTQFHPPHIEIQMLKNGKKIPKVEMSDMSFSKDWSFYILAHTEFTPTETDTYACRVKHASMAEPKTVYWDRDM
Sequence of H-2 D^b (P01899 25-362): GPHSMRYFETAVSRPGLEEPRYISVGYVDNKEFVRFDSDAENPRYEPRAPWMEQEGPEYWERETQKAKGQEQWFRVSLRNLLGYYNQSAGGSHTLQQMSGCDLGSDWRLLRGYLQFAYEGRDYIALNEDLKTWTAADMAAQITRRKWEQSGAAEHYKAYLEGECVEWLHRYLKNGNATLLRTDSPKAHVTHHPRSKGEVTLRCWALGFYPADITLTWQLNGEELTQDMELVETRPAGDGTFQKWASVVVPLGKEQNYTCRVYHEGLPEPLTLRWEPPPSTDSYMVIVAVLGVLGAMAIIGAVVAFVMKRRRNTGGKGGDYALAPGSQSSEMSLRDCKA
Experiment [14] has as its target H-2 D^d (Mus musculus, UniProt P01900).
The target in experiment [15] is H-2 K^d (Mus musculus, UniProt P01902).
Sequence of H-2 K^d (P01887 21-119): as the sequence (P01887 21-119) above
Sequence of H-2 K^d (P01902 22-368): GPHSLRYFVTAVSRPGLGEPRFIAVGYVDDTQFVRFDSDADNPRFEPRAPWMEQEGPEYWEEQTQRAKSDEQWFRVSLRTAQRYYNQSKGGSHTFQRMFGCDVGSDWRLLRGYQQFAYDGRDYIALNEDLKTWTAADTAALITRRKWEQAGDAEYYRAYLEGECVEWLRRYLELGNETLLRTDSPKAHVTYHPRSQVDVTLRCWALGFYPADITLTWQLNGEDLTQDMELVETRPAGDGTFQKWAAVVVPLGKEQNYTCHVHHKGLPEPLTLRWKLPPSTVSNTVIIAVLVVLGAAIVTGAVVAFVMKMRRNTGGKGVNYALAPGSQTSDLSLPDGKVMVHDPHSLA
Experiment [16] has as its target H-2 K^k (Mus musculus, UniProt P04223).

Sequence of H-2 K^k (P01887 21-119): as the sequence (P01887 21-119) above
Sequence of H-2 K^k (P04223 22-369): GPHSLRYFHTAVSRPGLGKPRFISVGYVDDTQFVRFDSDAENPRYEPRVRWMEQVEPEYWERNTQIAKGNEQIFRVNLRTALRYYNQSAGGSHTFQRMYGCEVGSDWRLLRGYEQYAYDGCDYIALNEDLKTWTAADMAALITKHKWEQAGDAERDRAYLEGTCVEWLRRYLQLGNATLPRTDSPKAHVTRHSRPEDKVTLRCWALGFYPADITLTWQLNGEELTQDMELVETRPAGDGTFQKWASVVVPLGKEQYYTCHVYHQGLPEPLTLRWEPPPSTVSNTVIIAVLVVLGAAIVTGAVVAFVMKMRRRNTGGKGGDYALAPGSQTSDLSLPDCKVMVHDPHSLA
Sequence of H-2 D^d (P01900 whole entry, looked up): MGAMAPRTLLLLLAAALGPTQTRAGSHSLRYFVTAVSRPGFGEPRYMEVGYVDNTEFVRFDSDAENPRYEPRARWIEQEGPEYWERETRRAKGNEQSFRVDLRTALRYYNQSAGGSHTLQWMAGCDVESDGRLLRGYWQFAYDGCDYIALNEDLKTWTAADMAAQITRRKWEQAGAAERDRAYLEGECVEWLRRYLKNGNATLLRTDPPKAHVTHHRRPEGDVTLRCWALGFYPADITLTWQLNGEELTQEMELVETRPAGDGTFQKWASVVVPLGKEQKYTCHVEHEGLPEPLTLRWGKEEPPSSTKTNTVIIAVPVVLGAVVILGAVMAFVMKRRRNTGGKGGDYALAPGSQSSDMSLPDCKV

As for XXXXXXSXX [3064.0136], the “Normalized average relative binding affinity(ARB)” value is on record as 0.042 in experiment [1]; 0.14 in experiment [2]; 0.40 in experiment [3]; 0.35 in [4]; 0.65 in experiment [5]; 0.32 in experiment [6]. Moreover, the “Normalized average relative binding affinity(ARB)” value in experiment [7] stood at 0.22; in experiment [8], 0.51; in experiment [9], 0.087; in experiment [10], 0.098; in experiment [11] it was 0.14; in [12], 0.044. The “Normalized average relative binding affinity(ARB)” value came out at 0.34 in experiment [13], 0.038 in experiment [14], 0.92 in experiment [15] and 0.16 in [16].
Consider XXXVXXXXX [3064.0078], for which the “Normalized average relative binding affinity(ARB)” value in experiment [1] turned out to be 0.22; in experiment [2], 0.27; in experiment [3], 0.15; in experiment [4], 0.47; in experiment [5] it was 0.52; in [6], 0.64. Further, the “Normalized average relative binding affinity(ARB)” value is reported as 0.17 in experiment [7]; 0.67 in experiment [8]; 0.70 in experiment [9]; 1.00 in experiment [10]; 0.33 in experiment [11]; 0.53 in [12]. Further, the “Normalized average relative binding affinity(ARB)” value in experiment [13] turned out to be 0.87; in [14], 0.48; in experiment [15], 0.19; in experiment [16], 0.49.
For XXXXEXXXX [3064.0084], the “Normalized average relative binding affinity(ARB)” value is given as 0.099 in experiment [1]; 0.066 in experiment [2]; 0.20 in [3]; 0.014 in [4]; 0.42 in experiment [5]; 0.41 in experiment [6]. Further, the “Normalized average relative binding affinity(ARB)” value in experiment [7] is 0.34; in experiment [8], 0.20; in experiment [9] it was 0.15; in [10], 0.26; in experiment [11] it was 0.21; in experiment [12], 0.23. The “Normalized average relative binding affinity(ARB)” value in experiment [13] turned out to be 0.021; in experiment [14] it was 0.059; in experiment [15], 0.031; in [16], 0.11.
Consider XXXXXXGXX [3064.0126], for which the “Normalized average relative binding affinity(ARB)” value in experiment [1] came to 0.044; in experiment [2], 0.051; in experiment [3] it was 0.071; in experiment [4], 0.17; in experiment [5], 0.52; in [6] it was 0.12. For the same sequence, the “Normalized average relative binding affinity(ARB)” value in [7] was 0.12; in experiment [8], 0.33; in [9] it was 0.058; in experiment [10], 0.073; in experiment [11], 0.031; in experiment [12] it was 0.024. The “Normalized average relative binding affinity(ARB)” value in experiment [13] came to 0.45; in experiment [14] it was 0.031; in experiment [15], 0.28; in experiment [16], 0.34.
As for XXXXXAXXX [3064.0101], the “Normalized average relative binding affinity(ARB)” value turned out to be 0.34 in experiment [1]; 0.83 in experiment [2]; 0.82 in experiment [3]; 0.011 in experiment [4]; 0.30 in experiment [5]; 0.45 in experiment [6]. Further, the “Normalized average relative binding affinity(ARB)” value is reported as 0.21 in [7]; 0.43 in experiment [8]; 0.65 in [9]; 0.20 in experiment [10]; 0.28 in experiment [11]; 0.91 in experiment [12]. Besides, the “Normalized average relative binding affinity(ARB)” value in experiment [13] is 0.62; in experiment [14], 0.51; in [15] it was 0.26; in experiment [16], 0.83.
For XXXXXWXXX [3064.0119], the “Normalized average relative binding affinity(ARB)” value was determined as 0.14 in [1]; 0.26 in experiment [2]; 0.44 in [3]; 0.046 in experiment [4]; 0.36 in [5]; 0.37 in experiment [6]. The “Normalized average relative binding affinity(ARB)” value in experiment [7] was 0.99; in [8], 0.10; in [9], 0.36; in [10], 0.18; in experiment [11], 0.21; in experiment [12] it was 0.29. Also, the “Normalized average relative binding affinity(ARB)” value in experiment [13] came out at 1.0; in experiment [14], 0.77; in experiment [15], 0.29; in experiment [16], 0.49.
